Experiments:
[1] = tested on: Frizzled homolog 1 (FZD1); test: FZD1 expression in keratinocytes by Q-RT-PCR; assay type: cell-based; details: human neonatal keratinocyte cells, 10 μM, 24 hours, FIG. 3
Experimental: (§1) Human neonatal keratinocyte cells purchased from Welskin Co (Seoul, Korea) were subcultured in a 25 cm^2 T-flask and incubated in a CO2 incubator under conditions of 37° C. and 5% CO2. Generally, the experiment was carried out after the cells have been subcultured for 2-3 passages. According to the method of Lonza, Inc. (Walkersville, Md., USA), the medium used in the cell culture was prepared by adding a KGM-2 bullet kit (bovine pituitary extract (2 mg), human epidermal growth factor (0.5 ml), insulin (0.5 ml), hydrocortisone (0.5 mg), transferrin (0.5 mg), epinephrine (0.5 mg), and gentamicin sulfate+amphotericin-B (GA-1000, 0.5 ml)) to 500 ml of KBM-2 medium (Clonetics CC-3103). When a confluence of about 50% was shown 2 days after the subculture of the cells, the serum was starved. After 24 hours, the cells were treated with 10 μM of each of a negative control, an Angelica gigas Nakai extract (positive control), daidzein and Examples 1-6 for 24 hours. […]
(§2) Then, RNA of the cells was isolated using Trizol reagent (Invitrogen, Carlsbad, Calif., USA). The isolated RNA was purified with Qiagen RNeasy kit (Qiagen, Valencia, Calif.), and then the quality of the RNA was confirmed using the Agilent 2100 Bio-Analyzer (Agilent Technologies, Santa Clara, Calif., USA). cDNA was synthesized from the RNA using a superscript reverse transcriptase (RT) kit (Invitrogen, Carlsbad, Calif.) and was quantitatively analyzed through a real time-reverse transcription polymerase chain reaction (Q-RT-PCR). The changes in the expression patterns of genes in the keratinocyte cells were analyzed using the TaqMan®gene expression assay kit (Applied Biosystems, Foster City, Calif.), Dickkopf homolog 3 (DKK3)-HS00247426_m1, and Frizzled homolog 1 (FZD1)-HS00268943_s1 (TagMan primer catalog name), thus confirming the expression levels of DKK3 and FZD1.

TNF-alpha = test: Anti-inflammatory effect: TNF-alpha gene expression in LPS-treated HaCaT cells; assay type: cell-based, human; details: 10 μM pretreatment 2 hours, 1 μg/ml LPS 8 hours, mRNA normalized to GAPDH, FIG. 4
Experimental: In this Example, human keratinocyte HaCaT cells obtained from the Korean Cell Line Bank (Seoul, Korea) were used. The HaCaT cells were seeded into a DMEM medium containing 10% (v/v) FBS, 100 U/ml penicillin and 100 μg/ml streptomycin and were incubated in an animal cell incubator under conditions of 37° C. and 5% CO2. The HaCaT cells prepared at 1.5×10^6 cells/well were adapted in FBS-free medium for 3 hours. The cells were pretreated with 10 μM of each of 4′,6,7-trihydroxyisoflavone, 3′,4′,7-trihydroxyisoflavone, daidzein and TGZ for 2 hours, 1 μg/ml of lipopolysaccharide (LPS) was added thereto, and then the cells were additionally cultured for 8 hours. Total RNA of the cells was extracted using TRIzol™ (GIBCO BRL, MD, USA) and stored at −80° C. 1 μg of the total RNA was added to 25 μl of a reverse transcription reaction buffer containing 50 mM Tris-HCl (pH 8.3), 75 mM KCl, 3 mM MgCl2, 0.1 M DTT, 10 mM dNTP and 40 U/μl RNase inhibitor. 0.5 μg/μl oligo(dT)16 primers and 200 U SuperScript per Script II reverse transcriptase (GiboBRL) were added thereto, and the total RNA was subjected to a reverse transcription reaction at 42° C. for 1 hour. Then, 2.5 μl of the reverse transcription reaction solution was added to […] of a PCR reaction buffer containing 0.04 U AmpliTaq DNA polymerase (Perkin Elmer, Shelton, Conn.), 50 mM Tris-HCl (pH 8.3), 0.25 mg/ml bovine serum albumin, 3 mM MgCl2, 0.25 mM dNTPs and a 1/50,000 dilution of SYBR green I (Molecular Probes, Eugene, Oreg.), and 10 μM primers were added thereto. Then, a PCR reaction was subjected to PCR amplification. The PCR reaction consisted of 30 cycles of denaturation at 94° C. for 30 sec, annealing at 53° C. for 30 sec and extension at 72° C. for 1 min. The relative mRNA levels were analyzed by measuring the change in fluorescence of SYBR green I using ICycler software. As an internal standard, GAPDH (glyceraldehyde 3-phosphate dehydrogenase) was used to normalize the quantitative expression level of the gene TNF-alpha.

[2] = tested on: Human keratinocyte HaCaT cells; test: Keratinocyte division inhibition, BrdU colorimetric ELISA; assay type: cell-based; details: HaCaT cells, 1, 10 and 50 μM, 48 hours, BrdU analysis, FIG. 1; for keratinocyte division-inhibiting effect: compared with daidzein
Experimental: Human keratinocyte HaCaT cells were added to 10% fetal bovine serum-containing DMEM medium [Dulbecco's modified Eagle's Medium; Gibco 1210-0038] and cultured in a 24-well plate at a confluence of 70%. The HaCaT cells were treated with 1, 10 and 50 μM of each of 4′,6,7-trihydroxyisoflavone and 3′,4′,7-trihydroxyisoflavone, and after 48 hours, subjected to BrdU analysis. At 12 hours before the BrdU analysis was carried out, BrdU labeling was carried out. The BrdU analysis was carried out using a BrdU colorimetric ELISA kit (Roche) according to the manufacturer's instruction. First, the culture broth was treated with BrdU solution for 12 hours, and then the medium was removed. The cells were fixed, and a peroxidase-conjugated BrdU antibody was added thereto, after which the cells were treated with a substrate solution to induce color development. The degree of color development was measured with an ELISA reader. As positive controls, calcium known to be used for the differentiation of keratinocytes, and troglitazone (TGZ) known to inhibit cell division and induce cell differentiation were used.

[3] = tested on: Dickkopf homolog 3 (DKK3); test: DKK3 expression in keratinocytes by Q-RT-PCR; assay type: cell-based; details: human neonatal keratinocyte cells, 10 μM, 24 hours, FIG. 2
Experimental: as §1, §2

SMILES | expression level of FZD1 [1] | expression of the TNF-alpha gene (TNF-alpha) | concentration dependence of inhibition of keratinocyte division [2] | keratinocyte division-inhibiting effect [2] | expression level of DKK3 [3]
O=c1c(-c2ccc(O)c(O)c2)coc2cc(O)ccc12 [3′,4′,7-trihydroxyisoflavone] | effectively promoted the expression | strongly inhibited | concentration-dependent manner | significantly superior to that of daidzein | effectively promoted the expression
O=c1c(-c2ccc(O)cc2)coc2cc(O)c(O)cc12 [4′,6,7-trihydroxyisoflavone] | effectively promoted the expression | strongly inhibited | concentration-dependent manner | significantly superior to that of daidzein | effectively promoted the expression
O=c1c(-c2ccc(O)cc2)coc2cc(O)ccc12 [daidzein, reference compound] | significantly lower than those in the groups treated with the ortho-dihydroxyisoflavone derivatives | slightly inhibited |  |  | significantly lower than those in the groups treated with the ortho-dihydroxyisoflavone derivatives

Reference: US20110224291A1, “SKIN EXTERNAL COMPOSITION FOR INHIBITING EPIDERMAL HYPERPROLIFERATION AND ALLEVIATING INFLAMMATORY SKIN DISEASES CONTAINING ORTHODIHYDROXYISOFLAVONE DERIVATIVES” (priority 2008, published 2011)
